Reference: ChEMBL document CHEMBL1130465, “Peptidic prodrugs of novel aminomethyl-THF 1-methylcarbapenems” (1997)
Values after ≈ are worked out from the molar mass of the structure shown.

Tests used:
Format in all cases: functional
[1] = system: Enterococcus faecalis; experiment: In vitro antimicrobial activity against Enterococcus faecalis GC 842 strain; conditions: Enterococcus faecalis; read-out: MIC
[2] = system: Enterobacter cloacae; experiment: In vitro antimicrobial activity against Enterobacter cloacae GC 2209 strain
[3] = system: Staphylococcus aureus; experiment: In vitro antimicrobial activity against Staphylococcus aureus GC 2220 strain; conditions: Staphylococcus aureus; read-out: MIC
[4] = system: Pseudomonas aeruginosa; experiment: In vitro antimicrobial activity against Pseudomonas aeruginosa ATCC 27853 strain; conditions: Pseudomonas aeruginosa, ATCC 27853; read-out: MIC
[5] = system: Escherichia coli; experiment: In vitro antimicrobial activity against Escherichia coli GC 2205 strain
[6] = system: Acinetobacter calcoaceticus; experiment: In vitro antimicrobial activity against Acinetobacter calcoaceticus GC 756 strain; conditions: Acinetobacter calcoaceticus; read-out: MIC
[7] = system: Morganella morganii; experiment: In vitro antimicrobial activity against Morganella morganii GC 2213 strain; conditions: Morganella morganii; read-out: MIC
[8] = system: Enterococcus faecium; experiment: In vitro antimicrobial activity against Enterococcus faecium GC 1182 strain; conditions: Enterococcus faecium; read-out: MIC
[9] = species on record: Mus musculus; experiment: animal or person; conditions: Mus musculus, po; read-out: ED50
Description: Tested for oral activity against Escherichia coli #311 infection in mice after single oral dose(SOD)

[10] = system: Escherichia coli; experiment: In vitro antimicrobial activity against Escherichia coli GC 1792 strain; conditions: Escherichia coli; read-out: MIC
[11] = system: Citrobacter freundii; experiment: In vitro antimicrobial activity against Citrobacter freundii GC 2211 strain; conditions: Citrobacter freundii; read-out: MIC
[12] = system: Staphylococcus aureus; experiment: In vitro antimicrobial activity against Staphylococcus aureus ATCC 29213 strain
[13] = system: Escherichia coli; experiment: In vitro antimicrobial activity against Escherichia coli ATCC 25922 strain
[14] = system: Pseudomonas aeruginosa; experiment: In vitro antimicrobial activity against Pseudomonas aeruginosa GC 1544 strain; conditions: Pseudomonas aeruginosa; read-out: MIC
[15] = system: Stenotrophomonas maltophilia; experiment: In vitro antimicrobial activity against Xanthomonas maltophilia GC 562 strain
[16] = system: Mus musculus; experiment: Tested for oral activity against Escherichia coli #311 infection in mice after single subcutaneous dose(SSC)
[17] = system: Mus musculus; experiment: Tested for oral activity against Staphylococcus aureus smith infection in mice after single subcutaneous dose(SSC); 0.06-0.21
[18] = Ratio of ED50 of single oral dose to ED50 of single subcutaneous dose against Staphylococcus aureus smith infection in mice
[19] = system: Mus musculus; experiment: Tested for oral activity against Staphylococcus aureus smith infection in mice after single oral dose(SOD); 0.83-1.7
[20] = system: Mus musculus; experiment: Tested for oral activity against Staphylococcus aureus smith infection in mice after single subcutaneous dose(SSC); 0.1-0.21
[21] = system: Mus musculus; experiment: Tested for oral activity against Staphylococcus aureus smith infection in mice after single subcutaneous dose(SSC); 0.42-0.83
[22] = system: Mus musculus; experiment: Tested for oral activity against Staphylococcus aureus smith infection in mice after single oral dose(SOD); conditions: Mus musculus, po; read-out: ED50
[23] = Ratio of ED50 of single oral dose to ED50 of single subcutaneous dose against Staphylococcus aureus smith infection in mice; 16-8
[24] = system: Mus musculus; experiment: Tested for oral activity against Staphylococcus aureus smith infection in mice after single oral dose(SOD); 4-8
[25] = system: Mus musculus; experiment: Tested for oral activity against Escherichia coli #311 infection in mice after single subcutaneous dose(SSC); 0.5-1
[26] = system: Mus musculus; experiment: Tested for oral activity against Staphylococcus aureus smith infection in mice after single subcutaneous dose(SSC); 0.12-0.25

SMILES	MIC [1]	MIC [2]	MIC [3]	MIC [4]	MIC [5]	MIC [6]	MIC [7]	MIC [8]	MIC [10]	MIC [11]	MIC [12]	MIC [13]	MIC [14]	MIC [15]	Ratio [18]	ED50 [19]	also measured
C[C@H]1C(S[C@@H]2CCO[C@@H]2CNC(=O)[C@@H](N)Cc2ccccc2)=C(C(=O)O)N2C(=O)[C@H]([C@@H](C)O)C12 (stereo not given in full)	1 µg/mL (≈ 2.04 µM)	4 µg/mL (≈ 8.17 µM)	8 µg/mL (≈ 16.3 µM)	64 µg/mL (≈ 131 µM)	0.06 µg/mL (≈ 0.123 µM)	32 µg/mL (≈ 65.4 µM)	2 µg/mL (≈ 4.09 µM)	128 µg/mL (≈ 261 µM)	0.5 µg/mL (≈ 1.02 µM)	8 µg/mL (≈ 16.3 µM)	0.25 µg/mL (≈ 0.511 µM)	0.5 µg/mL (≈ 1.02 µM)	128 µg/mL (≈ 261 µM)	> 128 µg/mL	–	–	ED50 [9]: 24 mg/kg; ED50 [16]: 13 mg/kg
C[C@@H](N)C(=O)NC[C@@H]1C[C@@H](SC2=C(C(=O)O)N3C(=O)[C@H]([C@@H](C)O)C3[C@H]2C)CO1 (stereo not given in full)	4 µg/mL (≈ 9.67 µM)	0.12 µg/mL (≈ 0.29 µM)	4 µg/mL (≈ 9.67 µM)	32 µg/mL (≈ 77.4 µM)	0.12 µg/mL (≈ 0.29 µM)	8 µg/mL (≈ 19.3 µM)	1 µg/mL (≈ 2.42 µM)	> 128 µg/mL	0.12 µg/mL (≈ 0.29 µM)	0.5 µg/mL (≈ 1.21 µM)	< 0.06 µg/mL	< 0.06 µg/mL	64 µg/mL (≈ 155 µM)	> 128 µg/mL	14	0.83 mg/kg	ED50 [17]: 0.06 mg/kg
C[C@@H](N)C(=O)NC[C@@H]1C[C@H](SC2=C(C(=O)O)N3C(=O)[C@H]([C@@H](C)O)C3[C@H]2C)CO1 (stereo not given in full)	4 µg/mL (≈ 9.67 µM)	0.25 µg/mL (≈ 0.605 µM)	8 µg/mL (≈ 19.3 µM)	32 µg/mL (≈ 77.4 µM)	0.12 µg/mL (≈ 0.29 µM)	8 µg/mL (≈ 19.3 µM)	1 µg/mL (≈ 2.42 µM)	> 128 µg/mL	0.06 µg/mL (≈ 0.145 µM)	1 µg/mL (≈ 2.42 µM)	< 0.06 µg/mL	< 0.06 µg/mL	64 µg/mL (≈ 155 µM)	> 128 µg/mL	8.3	0.83 mg/kg	ED50 [20]: 0.1 mg/kg
C[C@H](N)C(=O)NC[C@H]1OCC[C@H]1SC1=C(C(=O)O)N2C(=O)[C@H]([C@@H](C)O)C2[C@H]1C (stereo not given in full)	2 µg/mL (≈ 4.84 µM)	0.25 µg/mL (≈ 0.605 µM)	8 µg/mL (≈ 19.3 µM)	64 µg/mL (≈ 155 µM)	< 0.06 µg/mL	8 µg/mL (≈ 19.3 µM)	1 µg/mL (≈ 2.42 µM)	> 128 µg/mL	0.12 µg/mL (≈ 0.29 µM)	1 µg/mL (≈ 2.42 µM)	< 0.06 µg/mL	< 0.06 µg/mL	64 µg/mL (≈ 155 µM)	> 128 µg/mL	–	–	ED50 [21]: 0.42 mg/kg; ED50 [22]: 6.6 mg/kg; Ratio [23]: >16
C[C@H]1C(S[C@H]2COC[C@H]2CN)=C(C(=O)O)N2C(=O)[C@H]([C@@H](C)O)C12 (stereo not given in full)	2 µg/mL (≈ 5.84 µM)	< 0.06 µg/mL	4 µg/mL (≈ 11.7 µM)	16 µg/mL (≈ 46.7 µM)	0.12 µg/mL (≈ 0.35 µM)	2 µg/mL (≈ 5.84 µM)	2 µg/mL (≈ 5.84 µM)	128 µg/mL (≈ 374 µM)	< 0.06 µg/mL	0.25 µg/mL (≈ 0.73 µM)	< 0.06 µg/mL	< 0.06 µg/mL	32 µg/mL (≈ 93.5 µM)	> 128 µg/mL	33	–	ED50 [24]: 4 mg/kg; ED50 [25]: 0.5 mg/kg; ED50 [26]: 0.12 mg/kg
